The record followed here is US20210171948A1, “COMPOSITIONS AND METHODS FOR TARGETING GLYPICAN-2 IN THE TREATMENT OF CANCER” (Shepherd Therapeutics, Inc., priority 2019, published 2021).

Strand notation (5' to 3'): a small letter for the sugar, then the base; units joined by * are phosphorothioate-linked, units joined directly phosphodiester-linked; [ ] holds rarer units or linkages, { } end groups; capitals alone tell only the bases. d = 2'-deoxy (DNA); r = 2'-OH (RNA)

Format in all cases: cell-based
In data set [1] the test system is CHLA-136 cells. Description: Cisplatin IC50 in siRNA-transfected cells, Cell Titer Glo 2.0 viability (Example 5). The method, then:
(§1) GPC2 mRNA was reduced using the indicated siRNAs and changes in cell viability were assessed in multiple cancer cell lines, in combination with Cisplatin treatment. Cells were transfected with either a scrambled control siRNA or with GPC2 siRNA sequences 3 or 5 from Table 7 using the RNAiMAX Lipofectamine kit (Invitrogen, Carlsbad, Calif.), as previously described, in either in 96 well (for viability assays) or 6 well format (for total RNA). Cisplatin was added at increasing concentrations (0 to 30 uM) to transfected cells at 24 hours post transfection. Following a 72 hour incubation period, cell viability was measured using Cell Titer Glo 2.0. Total RNA samples were also isolated to measure knockdown efficiency.

Data set [2] has as its system CHLA-172 cells. Described as above. The method, then:
as §1

The subject of data set [3] is CHLA-90 cells. Described as above. The method, then: as §1
In data set [4] the test system is CHP212 cells. Described as above. The method, then: as §1
In data set [5] the test system is COV362 cells. Described as above. The protocol: as §1
Data set [6] deals with GIST-T1 cells. Described as above. The note with it: GIST-T1 cells transfected with the labelled siRNA; cisplatin added 24 hours post transfection, 72 hour incubation. The protocol:
as §1

Data set [7] concerns KELLY cells. Described as above. The note with it: KELLY cells transfected with the labelled siRNA; cisplatin added 24 hours post transfection, 72 hour incubation. The protocol: as §1
Data set [8] relates to RH30 cells. The data set is described as above. The method, then:
as §1

The test system of data set [9] is RH41 cells. The data set is described as above. To be noted: RH41 cells transfected with the labelled siRNA; cisplatin added 24 hours post transfection, 72 hour incubation. The protocol:
as §1

Data set [10] deals with SH-SY5Y cells. The data set is described as above. The note with it: SH-SY5Y cells transfected with the labelled siRNA; cisplatin added 24 hours post transfection, 72 hour incubation. The method, then: as §1
The subject of data set [11] is SK-N-BE2 cells. Described as above. To be noted: SK-N-BE2 cells transfected with the labelled siRNA; cisplatin added 24 hours post transfection, 72 hour incubation. The method, then: as §1
Data set [12] has as its system SKNAS cells. Described as above. The protocol:
as §1

In data set [13] the test system is SNU16 cells. The description is as above. The method, then:
as §1

In data set [14] the test system is TC32 cells. The description is as above. The protocol:
as §1

In data set [15] the test system is TC71 cells. The description is as above. The method, then:
as §1

For data set [16], the system named is TOV112D cells. The description is as above. The method, then: as §1
Data set [17] concerns CHLA-90 cells. Description: Doxorubicin IC50 in siRNA-transfected cells, Cell Titer Glo viability (Example 8). To be noted: for IC50: CHLA-90 cells transfected with the labelled siRNA, doxorubicin added 24 hours post transfection, 72 hour incubation. The method, then: (§2) GPC2 mRNA expression was reduced and changes in cell viability were assessed in multiple neuroblastoma cell lines. Cells were transfected with either a control siRNA or with GPC-2 siRNA sequences 3, 5 or 7 from Table 7 using the RNAiMAX Lipofectamine kit (Invitrogen, Carlsbad, Calif.) as previously described in 96 wells for viability assays. Doxorubicin was added at increasing concentrations (0-5 uM) to transfected cells at 24 hours post transfection. Following a 72 hour incubation period, viability measurements were made using Cell Titer Glo.
For orientation: ATP-based viability assays read luminescence as a measure of living cells.

In data set [18] the test system is CHP212 cells. The description is as above. To be noted: for Data Summary: effect of knockdown on sensitivity to doxorubicin: CHP212; for IC50: CHP212 cells transfected with the labelled siRNA, doxorubicin added 24 hours post transfection, 72 hour incubation. The protocol: as §2
Data set [19] has as its system SH-SY5Y cells. Described as above. The note with it: for IC50: SH-SY5Y cells transfected with the labelled siRNA, doxorubicin added 24 hours post transfection, 72 hour incubation. The method, then: as §2
Data set [20] concerns SK-N-BE2 cells. The description is as above. To be noted: for IC50: SK-N-BE2 cells transfected with the labelled siRNA, doxorubicin added 24 hours post transfection, 72 hour incubation. The protocol:
as §2

The test system of data set [21] is CHLA-136 cells. The data set can be described thus: Etoposide IC50 in siRNA-transfected cells, Cell Titer Glo 2.0 viability (Example 9). The method, then:
(§3) GPC2 mRNA expression was reduced and changes in cell viability were assessed in multiple neuroblastoma cell lines. Cells were transfected with either a control siRNA or with GPC2 siRNA sequences 3, 5 or 7 from Table 7 using the RNAiMAX Lipofectamine kit (Invitrogen, Carlsbad, Calif.) as previously described in 96 wells for viability assays. Etoposide was added at increasing concentrations (0-15 uM) to transfected cells at 24 hours post transfection. Following a 72 hour incubation period, viability measurement were made using Cell Titer Glo 2.0.

Data set [22] deals with CHLA-172 cells. Described as above. The method, then:
as §3

For data set [23], the system named is KELLY cells. The description is as above. The method, then: as §3
The subject of data set [24] is SKNAS cells. The description is as above. The protocol: as §3

“GPC2 siRNA 3: siRNA duplex: sense CCUGCUUGGACCUCGAUAA[dT][dT] (SEQ ID NO: 207), anti-sense UUAUCGAGGUCCAAGCAGG[dT][dT] (SEQ ID NO: 208) (sense CCUGCUUGGACCUCGAUAANN; antisense UUAUCGAGGUCCAAGCAGGNN; 3' dTdT overhangs, chemistry not fully specified; listed as Homo sapiens)”: the “Data Summary: effect of knockdown on sensitivity to cisplatin” value in data set [1] (CHLA-136) is on record as “increases sensitivity to”; in data set [2] (CHLA-172), “does not increase”; in data set [3] (CHLA-90), “increases sensitivity to”; in data set [4] (CHP212), “increases sensitivity to”; in data set [5] (COV362) it was “does not increase”; in data set [8] (RH30) it was “does not increase”. Besides, the “Data Summary: effect of knockdown on sensitivity to cisplatin” value in [12] (SKNAS) is reported as “increases sensitivity to”; in data set [13] (SNU16), “does not increase”; in data set [14] (TC32), “does not increase”; in data set [15] (TC71), “does not increase”; in [16] (TOV112D) it was “does not increase”. Besides, the IC50 in [1] (CHLA-136 cells transfected with the labelled siRNA, cisplatin added 24 hours post transfection, 72 hour incubation) worked out at 11 µM; in data set [2] (CHLA-172 cells transfected with the labelled siRNA, cisplatin added 24 hours post transfection, 72 hour incubation), 16 µM; in data set [3] (CHLA-90 cells transfected with the labelled siRNA, cisplatin added 24 hours post transfection, 72 hour incubation), 15 µM; in [4] (CHP212 cells transfected with the labelled siRNA, cisplatin added 24 hours post transfection, 72 hour incubation), 7.4 µM; in [5] (COV362 cells transfected with the labelled siRNA, cisplatin added 24 hours post transfection, 72 hour incubation) it was 6.4 µM; in data set [6], 13 µM. Further, the IC50 in [7] amounted to 21.7 µM; in data set [8] (RH30 cells transfected with the labelled siRNA, cisplatin added 24 hours post transfection, 72 hour incubation), 2.1 µM; in data set [9], 3.2 µM; in data set [10], 17.6 µM; in [11] it was 8 µM; in data set [12] (SKNAS cells transfected with the labelled siRNA, cisplatin added 24 hours post transfection, 72 hour incubation), 20 µM. Also, the IC50 was found to be 16 µM in data set [13] (SNU16 cells transfected with the labelled siRNA, cisplatin added 24 hours post transfection, 72 hour incubation); 2.3 µM in data set [14] (TC32 cells transfected with the labelled siRNA, cisplatin added 24 hours post transfection, 72 hour incubation); 1.3 µM in [15] (TC71 cells transfected with the labelled siRNA, cisplatin added 24 hours post transfection, 72 hour incubation); 5 µM in data set [16] (TOV112D cells transfected with the labelled siRNA, cisplatin added 24 hours post transfection, 72 hour incubation); 0.35 µM in [17]; 0.03 µM in [18]. Besides, the IC50 amounted to 0.08 µM in [19]; 1 µM in data set [20]; 0.17 µM in data set [21] (CHLA-136 cells transfected with the labelled siRNA, etoposide added 24 hours post transfection, 72 hour incubation); 2 µM in [22] (CHLA-172 cells transfected with the labelled siRNA, etoposide added 24 hours post transfection, 72 hour incubation); 0.07 µM in data set [23] (KELLY cells transfected with the labelled siRNA, etoposide added 24 hours post transfection, 72 hour incubation); 0.04 µM in [24] (SKNAS cells transfected with the labelled siRNA, etoposide added 24 hours post transfection, 72 hour incubation). Further, in [18], the “Data Summary: effect of knockdown on sensitivity to doxorubicin” value was “does not increase sensitivity”. Also, the “Data Summary: effect of knockdown on sensitivity to etoposide” value in data set [21] (CHLA-136), in data set [22] (CHLA-172), in data set [23] (KELLY) and in data set [24] (SKNAS) was “increases sensitivity to etoposide” in each case.
Take “GPC2 siRNA 7: siRNA duplex: sense CUCCUUUCUGGUUCACACA[dT][dT] (SEQ ID NO: 215), anti-sense UGUGUGAACCAGAAAGGAG[dT][dT] (SEQ ID NO: 216) (sense rCrUrCrCrUrUrUrCrUrGrGrUrUrCrArCrArCrAdTdT; antisense rUrGrUrGrUrGrArArCrCrArGrArArArGrGrArGdTdT; listed as Homo sapiens)”: the “Data Summary: effect of knockdown on sensitivity to doxorubicin” value in data set [17] (CHLA-90) was “increases sensitivity to”; in [18], “does not increase sensitivity”; in data set [19] (SH-SY5Y), “KD with sequence 7 increases”; in [20] (SK-N-BE2), “increases sensitivity to”. Moreover, the IC50 in data set [17] was found to be 0.13 µM; in [18] it was 0.02 µM; in [19], 0.03 µM; in data set [20], 0.2 µM.

By IC50 is commonly meant the point on the concentration scale where inhibition reaches its midpoint.
